From PubChem BioAssay AID256 (DTP/NCI, 2004) come the findings set out here.

Where “and” joins values, the source holds several entries; their conditions need not be identical. Identical values can stand only once. Inconclusive results and toxic doses are left out.

The assay concerns CD2F1 mice, L1210 leukemia ip, survival T/C. Nature of the assay: NCI In Vivo Anticancer Drug Screen. Data for tumor model L1210 Leukemia (intraperitoneal) in CD2F1 (CDF1) mice. Particulars: endpoint: mean survival time, higher = longer survival. The procedure, abridged:
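Mice carrying a transplanted tumor received test compound or vehicle alone. The value is the measurement in the treated group divided by that in the vehicle-treated control group.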

The mark [1] stands for this setting: dose: 100.0 mg/kg/injection, schedule: Q01DX009 (ip), vehicle: saline with Tween-80.
Where [2] appears, read: dose: 200.0 mg/kg/injection, schedule: Q01DX009 (ip), vehicle: saline with Tween-80.
The mark [3] stands for this setting: dose: 12.5 mg/kg/injection, schedule: Q01DX009 (ip), vehicle: saline.
Where [4] appears, read: dose: 25.0 mg/kg/injection, schedule: Q01DX009 (ip), vehicle: saline.
Where [5] appears, read: dose: 100.0 mg/kg/injection, schedule: Q01DX001 (ip), vehicle: saline.
[6] abbreviates: dose: 200.0 mg/kg/injection, schedule: Q01DX001 (ip), vehicle: saline.
[7] abbreviates: dose: 400.0 mg/kg/injection, schedule: Q01DX001 (ip), vehicle: saline.
Setting [8] is: dose: 12.5 mg/kg/injection, schedule: Q01DX009 (ip), vehicle: saline with Tween-80.
Where [9] appears, read: dose: 12.5 mg/kg/injection, schedule: Q04DX003 (ip), vehicle: saline with Tween-80.
[10] abbreviates: dose: 25.0 mg/kg/injection, schedule: Q01DX009 (ip), vehicle: saline with Tween-80.
Setting [11] is: dose: 25.0 mg/kg/injection, schedule: Q04DX003 (ip), vehicle: saline.
The mark [12] stands for this setting: dose: 50.0 mg/kg/injection, schedule: Q01DX009 (ip), vehicle: saline with Tween-80.
Setting [13] is: dose: 200.0 mg/kg/injection, schedule: Q04DX003 (ip), vehicle: saline with Tween-80.
[14] abbreviates: dose: 100.0 mg/kg/injection, schedule: Q04DX003 (ip), vehicle: saline with Tween-80.
Setting [15] is: dose: 400.0 mg/kg/injection, schedule: Q04DX003 (ip), vehicle: saline with Tween-80.
The mark [16] stands for this setting: dose: 50.0 mg/kg/injection, schedule: Q04DX002 (ip), vehicle: saline with Tween-80.
Setting [17] is: dose: 6.25 mg/kg/injection, schedule: Q04DX003 (ip), vehicle: saline.

`Cc1cc(=O)[nH]c2c1c(C#N)cn2C1CCCCC1`: the T/C is 101 % of control (dose: 100.0 mg/kg/injection, schedule: Q04DX003 (ip), vehicle: saline); 89 % of control (dose: 200.0 mg/kg/injection, schedule: Q04DX003 (ip), vehicle: saline); 93 % of control (dose: 400.0 mg/kg/injection, schedule: Q04DX003 (ip), vehicle: saline).

Take `O=C(Nc1ccccc1)OCC1CC2CCC1C2` (stereo not drawn): the T/C reads like this: under setting [1], 87 % of control; under setting [2], 93 % of control; (dose: 400.0 mg/kg/injection, schedule: Q01DX009 (ip), vehicle: saline with Tween-80) 95 % of control.

With `CNN=C1CCCC1`, the T/C is 97 % of control under setting [3] and 102 % of control under setting [4].

Regarding `CC(C)(C)C1=CC(C(C)(C)C)CCC1=O` (stereo not drawn), the T/C was 94 % of control (dose: 100.0 mg/kg/injection, schedule: Q01DX009 (ip), vehicle: acetone) and 94 % of control (dose: 200.0 mg/kg/injection, schedule: Q01DX009 (ip), vehicle: acetone).

Turning to `CCCOC(=O)C(SCCN(C)C)c1ccccc1` (stereo not drawn), the T/C runs as follows: under setting [5], 102 % of control; (dose: 100.0 mg/kg/injection, schedule: Q01DX009 (ip), vehicle: saline) 93 % of control; under setting [6], 97 % of control; (dose: 200.0 mg/kg/injection, schedule: Q01DX009 (ip), vehicle: saline) 100 % of control; under setting [7], 94 % of control; (dose: 400.0 mg/kg/injection, schedule: Q01DX009 (ip), vehicle: saline) 98 % of control.

For the molecule `CCCCCCCCCCCCCCCC(=O)N(C/C=C/CN(CCCN(C)C)C(=O)CCCCCCCCCCCCCCC)CCCN(C)C`, the T/C (dose: 6.25 mg/kg/injection, schedule: Q01DX009 (ip), vehicle: saline with Tween-80) is 92 % of control; the T/C (dose: 6.25 mg/kg/injection, schedule: Q04DX003 (ip), vehicle: saline with Tween-80) is 95 % of control; the T/C under setting [8] is 93 % of control; the T/C under setting [9] was 93 % of control; the T/C under setting [10] was 94 % of control; the T/C (dose: 25.0 mg/kg/injection, schedule: Q04DX003 (ip), vehicle: saline with Tween-80) is 98 % of control.

Turning to `CN(C)C=Nc1ccc(Cl)c(Cl)c1`, the T/C under setting [11] is 98 % of control and the T/C (dose: 50.0 mg/kg/injection, schedule: Q04DX003 (ip), vehicle: saline) is 92 % of control.

As for `CC(C#N)(Nc1ccccc1)c1ccc(Cl)cc1` (stereo not drawn), the T/C reads like this: under setting [12], 86 % of control; under setting [2], 97 % of control; under setting [13], 87 % of control.

For the molecule `CON(C)N=Nc1ccc(C(N)=O)cc1`, the T/C is 96 % of control and 110 % of control (dose: 4.68 mg/kg/injection, schedule: Q01DX009 (ip), vehicle: Klucel (hydroxypropylcellulose) (HPC)); 87 % of control and 109 % of control (dose: 9.37 mg/kg/injection, schedule: Q01DX009 (ip), vehicle: Klucel (hydroxypropylcellulose) (HPC)); 96 % of control and 101 % of control (dose: 18.75 mg/kg/injection, schedule: Q01DX009 (ip), vehicle: Klucel (hydroxypropylcellulose) (HPC)); 98 % of control and 104 % of control (dose: 37.5 mg/kg/injection, schedule: Q01DX009 (ip), vehicle: Klucel (hydroxypropylcellulose) (HPC)); 100 % of control and 103 % of control (dose: 75.0 mg/kg/injection, schedule: Q01DX009 (ip), vehicle: Klucel (hydroxypropylcellulose) (HPC)); 114 % of control and 103 % of control (dose: 150.0 mg/kg/injection, schedule: Q01DX009 (ip), vehicle: Klucel (hydroxypropylcellulose) (HPC)). Moreover, under “dose: 300.0 mg/kg/injection, schedule: Q01DX009 (ip), vehicle: Klucel (hydroxypropylcellulose) (HPC)”, the T/C is 114 % of control.

`O=C1C=C(N2CCCC2)c2ccccc21`: the T/C is 106 % of control (dose: 100.0 mg/kg/injection, schedule: Q04DX003 (ip), vehicle: Klucel (hydroxypropylcellulose) (HPC)); 97 % of control (dose: 200.0 mg/kg/injection, schedule: Q04DX003 (ip), vehicle: Klucel (hydroxypropylcellulose) (HPC)); 95 % of control (dose: 400.0 mg/kg/injection, schedule: Q04DX003 (ip), vehicle: Klucel (hydroxypropylcellulose) (HPC)).

On to `O=Cc1cc(=O)[nH]c2ccccc12`, for which the T/C was 96 % of control under setting [14], 98 % of control under setting [13] and 100 % of control under setting [15].

In the case of `Cc1ccccc1SCCC(=O)O`, the T/C was 101 % of control under setting [8], 102 % of control under setting [10], 101 % of control under setting [12] and 97 % of control under setting [1].

On to `CCCCCCCCCCCCCCCC1CCCC(C)N1` (stereo not drawn), for which the T/C under setting [16] was 90 % of control and 105 % of control; the T/C (dose: 100.0 mg/kg/injection, schedule: Q04DX002 (ip), vehicle: saline with Tween-80) is 87 % of control; the T/C (dose: 200.0 mg/kg/injection, schedule: Q04DX002 (ip), vehicle: saline with Tween-80) was 87 % of control.

As to `CC(O)C(=O)Oc1ccccc1` (stereo not drawn), the T/C was 92 % of control (dose: 50.0 mg/kg/injection, schedule: Q01DX009 (ip), vehicle: other); 100 % of control (dose: 100.0 mg/kg/injection, schedule: Q01DX009 (ip), vehicle: other); 102 % of control (dose: 200.0 mg/kg/injection, schedule: Q01DX009 (ip), vehicle: other).

As to `C[N+](C)(C)CCCCC[N+](C)(C)C`, the T/C runs as follows: (dose: 6.25 mg/kg/injection, schedule: Q01DX009 (ip), vehicle: saline sonified) 93 % of control; under setting [17], 103 % of control; (dose: 12.5 mg/kg/injection, schedule: Q01DX009 (ip), vehicle: saline sonified) 90 % of control; (dose: 12.5 mg/kg/injection, schedule: Q04DX003 (ip), vehicle: saline) 95 % of control; (dose: 25.0 mg/kg/injection, schedule: Q01DX009 (ip), vehicle: saline sonified) 93 % of control; under setting [10], 100 % of control. The T/C is 101 % of control under setting [11], 108 % of control under setting [12], 103 % of control under setting [1] and 86 % of control under setting [14].

Consider `O=C(Nc1ccc(Cl)c(C(F)(F)F)c1)Nc1c(Oc2ccc(Cl)c(Cl)c2)ccc(Cl)c1S(=O)(=O)O`, for which the T/C by setting is: under setting [3], 100 % of control; under setting [4], 98 % of control; (dose: 50.0 mg/kg/injection, schedule: Q01DX009 (ip), vehicle: saline) 100 % of control.

Turning to `[Cl][Pt+2][Cl].[NH-]CC1([NH-])CCCCC1`, the T/C is, setting by setting: (dose: 0.19 mg/kg/injection, schedule: Q04DX003 (ip), vehicle: saline with Tween-80) 107 % of control; (dose: 0.39 mg/kg/injection, schedule: Q04DX003 (ip), vehicle: saline with Tween-80) 107 % of control; (dose: 0.79 mg/kg/injection, schedule: Q04DX003 (ip), vehicle: saline with Tween-80) 113 % of control; (dose: 1.56 mg/kg/injection, schedule: Q04DX003 (ip), vehicle: saline with Tween-80) 114 % of control; (dose: 3.13 mg/kg/injection, schedule: Q04DX003 (ip), vehicle: saline) 202 % of control; under setting [17], 184 % of control. For the same molecule, the T/C under setting [9] is 244 % of control.

Turning to `CN(C)C(=S)NCc1ccccc1`, the T/C reads like this: under setting [14], 105 % of control; under setting [13], 109 % of control; under setting [15], 87 % of control.

For the molecule `CCCC(C)C1=NC(C)(C)CCO1` (stereo not drawn), the T/C is, setting by setting: (dose: 12.5 mg/kg/injection, schedule: Q04DX002 (ip), vehicle: saline) 96 % of control; (dose: 25.0 mg/kg/injection, schedule: Q04DX002 (ip), vehicle: saline) 101 % of control; (dose: 50.0 mg/kg/injection, schedule: Q04DX002 (ip), vehicle: saline) 93 % of control.

Regarding `CC(CN=Cc1ccccc1[NH-])N=Cc1ccccc1[NH-].[Ni+2]` (stereo not drawn), the T/C runs as follows: (dose: 6.25 mg/kg/injection, schedule: Q04DX002 (ip), vehicle: saline with Tween-80) 94 % of control; (dose: 12.5 mg/kg/injection, schedule: Q04DX002 (ip), vehicle: saline with Tween-80) 94 % of control; (dose: 25.0 mg/kg/injection, schedule: Q04DX002 (ip), vehicle: saline with Tween-80) 97 % of control; under setting [16], 94 % of control and 109 % of control.

As for `COC(=O)C1C2C=CC(C2)C1C(=O)O` (stereo not drawn), the T/C is, setting by setting: under setting [5], 100 % of control; under setting [6], 98 % of control; under setting [7], 103 % of control.
